Activity calls are given as the source filed them. No cut-off for these calls is given here.
What was measured:
[1] = biological target: T1, Transthyretin (Homo sapiens, UniProt P02766); test: (§1) Stabilization of recombinant human wild type TTR expressed in Escherichia coli BL21 (DE3) assessed as inhibition of amyloid beta formation by measuring turbidity preincubated for 30 mins followed by lowering pH from 7.2 to 4.4 measured after 72 hrs by microplate spectrophotometric method
[2] = Cytotoxicity against human HepG2 cells assessed as decrease in cell viability after 72 hrs by resazurin reduction assay; type: toxicity, cell-based; conditions: read-out: ID50
[3] = biological target: T1, Transthyretin; test: Binding affinity to recombinant human wild type TTR expressed in Escherichia coli BL21 (DE3) assessed as dissociation constants for second binding site of TTR by isothermal titration calorimetric method
[4] = biological target: T1, Transthyretin; test: Binding affinity to recombinant human wild type TTR expressed in Escherichia coli BL21 (DE3) assessed as dissociation constants for first binding site of TTR by isothermal titration calorimetric method
[5] = test system: Transthyretin (Homo sapiens), P02766 [V50M]; test: Stabilization of TTR V30M mutant tetramer in human plasma assessed as tetramer to total protein ratio preincubated overnight at 4 degC followed by further incubation at room temperature for 1 hr in presence of 4M urea by isoelectric focusing densitometric analysis
[6] = biological target: T1, Transthyretin; test: Displacement of [125I]-T4 from wild type TTR in human plasma after 1 hr by PAGE analysis; type: cell-free
[7] = biological target: T1, Transthyretin; test: Stabilization of wild type TTR tetramer in human plasma assessed as tetramer to total protein ratio preincubated overnight at 4 degC followed by further incubation at room temperature for 1 hr in presence of 4M urea by isoelectric focusing densitometric analysis
[8] = biological target: T1, Transthyretin; test: as §1, with “turbidity at 0.5 to 2 times molar concentration” for “turbidity”

Cc1oc(/C=C/c2ccc(Cl)o2)cc1C(=O)O
IC50 [1]: 2.49 µM
CC50 at 72 h [2]: 225 µM
Kd [3]: 0.278 µM
Kd [4]: 0.0039 µM

Oc1c(Cl)cc(-c2cc(Cl)c(O)c(Cl)c2)cc1Cl
CC50 at 72 h [2]: 60 µM

O=C(O)c1cc(-c2ccc(F)cc2F)cc(I)c1O
Ratio [5]: 0.445
inhibition [6]: Active
Ratio [7]: 0.768

N[C@@H](Cc1cc(I)c(Oc2cc(I)c(O)c(I)c2)c(I)c1)C(=O)O
inhibition [8]: Active

O=C(O)c1ccc2nc(-c3cc(Cl)cc(Cl)c3)oc2c1
CC50 at 72 h [2]: 247 µM
inhibition [6]: Active

Cc1c(C(=O)O)coc1/C=C/c1ccc(Cl)o1
CC50 at 72 h [2]: 181 µM
Ratio [5]: 0.481
inhibition [6]: Active
Ratio [7]: 0.961
